{"source": "patent US7754768B2", "about": "“Methods and compositions for modulating alpha adrenergic receptor activity” (Allergan, Inc., priority 2000, dated 2010)", "key": {"[1]": {"system": "rat spinal nerve ligation allodynia model", "assay": "Rat spinal nerve ligation allodynia model (chronic pain, von Frey tactile allodynia)", "type": "in vivo", "details": "30 minutes after administration", "experimental": "(§1) The physiological activity of these compounds was tested using four models: a rat locomotor model to assess sedation, an assay of cardiovascular activity in monkeys, a rat thermal paw withdrawal assay (Dirig et al., J. Neurosci. Methods 76:183-191 (1997) to test the alleviation of acute pain, and the rat spinal nerve ligation allodynia model (Kim and Chung, Pain 50:355-363 (1992) to assess the alleviation of neuropathic pain and central sensitization typical of chronic pain. As is known to those of skill in the art, these tests are established pharmacological methods for determining sedation, cardiovascular effects, acute pain and chronic pain, respectively, of pharmaceutical agents.\nA model for chronic pain (in particular peripheral neuropathy such as causalgia) involves the surgical ligation of the L5 (and optionally the L6) spinal nerves on one side in experimental animals. Rats recovering from the surgery gain weight and display a level of general activity similar to that of normal rats. However, these rats develop abnormalities of the foot, wherein the hindpaw is moderately everted and the toes are held together. More importantly, the hindpaw on the side affected by the surgery appears to become sensitive to pain from low-threshold mechanical stimuli, such as that producing a faint sensation of touch in a human, within about 1 week following surgery. This sensitivity to normally non-painful touch is called “tactile allodynia” and lasts for at least two months. The response includes lifting the affected hindpaw to escape from the stimulus, licking the paw and holding it in the air for many seconds. None of these responses is normally seen in the control group.\nRats are anesthetized before surgery. The surgical site is shaved and prepared either with betadine or Novacaine. Incision is made from the thoracic vertebra X111 down toward the sacrum. Muscle tissue is separated from the spinal vertebra (left side) at the L4-S2 levels. The L6 vertebra is located and the transverse process is carefully removed with a small rongeur to expose the L4-L6 spinal nerves. The L5 and L6 spinal nerves are isolated and tightly ligated with 6-0 silk thread. The same procedure is done on the right side as a control, except no ligation of the spinal nerves is performed.\nA complete hemostasis is confirmed, then the wounds are sutured. A small amount of antibiotic ointment is applied to the incised area, and the rat is transferred to the recovery plastic cage under a regulated heat-temperature lamp. […]\nTactile allodynia is measured prior to and 30 minutes after drug administration using von Frey hairs that are a series of fine hairs with incremental differences in stiffness. […] The applied force has been calculated to range from 0.41 to 15.1 grams. […]"}, "[2]": {"system": "African Green monkeys made glaucomatous", "assay": "Intraocular pressure in glaucomatous African Green monkeys after oral dosing", "type": "in vivo, African Green monkey", "experimental": "African Green monkeys are made glaucomatous and divided into three groups. Ocular hypertension is measured before the administration of any drug, then one of each group of animals is given an oral dose of either a) glucose (negative control); b) a formulation of FORMULA 2 at a dosage of either 2 mg/kg or 7 mg/kg, or c) Diamox® (acetazolamide; a carbonic anhydrase inhibitor used for treatment of glaucoma) (positive control) at a concentration of 20 mg/kg. Intraocular pressure is measured at 0, 6, 12, and 24 hours following administration of each formulation."}, "[3]": {"system": "male Sprague-Dawley rats", "assay": "Rat locomotor model to assess sedation (exploratory activity)", "type": "in vivo", "details": "30 minutes after injection, versus vehicle controls", "experimental": "as §1\nTo test sedation, six male Sprague-Dawley rats were given up to 3 mg/kg of each compound in a saline or DMSO vehicle by intraperitoneal injection (i.p.). Sedation was graded 30 minutes following administration of the drug by monitoring locomotor skills as follows.\nThe Sprague-Dawley rats are weighed and 1 ml/kg body weight of an appropriate concentration (ie. 3 mg/ml for a final dose of 3 mg/kg) drug solution is injected intraperitoneally. FORMULA 3 is formulated in approximately 10% DMSO and FORMULA 2 and FORMULA 4 are formulated in 50% DMSO. The results are compared to 29 historical controls that were injected with 1 ml/kg saline or 50% DMSO. Rat activity is then determined 30 minutes after injection of the drug solution. Rats are placed in a dark covered chamber and a digicom analyzer (Omnitech Electronic) quantitates their exploratory behavior for a five-minute period. The machine records each time the rat interrupts an array of 32 photoelectric beams in the X and Y orientation.\nFORMULA 2 and FORMULA 3 were tested at 1 mg/kg and FORMULA 4 was tested at 3 mg/kg. Thus, the compounds are not sedating."}, "[4]": {"system": "allodynia resulting from shingles", "assay": "Treatment of allodynia resulting from shingles in a patient", "type": "in vivo, human", "details": "oral capsule as needed, after two days' treatment, one patient", "from_the_text": "A person in generally good physical condition suffers from serious pain to their upper body due caused by contact of their skin with their clothing. The patient is unable to wear clothing on their upper body without severe pain. […] The patient is given a therapeutically effective oral dose of FORMULA 3 in capsule form as needed for the treatment of pain. […] Same facts as in Example 5, except the patient is given a therapeutically effective oral dose of FORMULA 2 in capsule form as needed for the treatment of pain."}, "[5]": {"system": "visceral pain", "assay": "Treatment of visceral pain in a colon cancer patient", "type": "in vivo, human", "details": "intravenous infusion twice daily, after two days, one patient", "from_the_text": "A patient suffering from colon cancer and undergoing chemotherapy experiences severe visceral pain associated with this primary condition. Treatment of this pain with opiates has been ineffective to provide substantial relief. The patient is given a therapeutic amount of FORMULA 3 by intravenous infusion in a pharmaceutically acceptable vehicle. The treatment is given twice daily. […] Under the same facts as Example 7, except the patient is given FORMULA 2 instead of FORMULA 3."}}, "data": [{"smiles": "OCCNC(=S)NCc1ccc(F)cc1", "note": "[AGN196204]", "values": [{"measurement": "Reduction of the response to tactile stimuli that indicate tactile allodynia (analgesic in chronic pain model)", "setting": "[1]", "result": "able to reduce the response to the tactile stimuli"}]}, {"smiles": "CC(=O)Nc1nnc(S(N)(=O)=O)s1", "note": "[Diamox ®, acetazolamide, reference compound]", "values": [{"measurement": "Change in Intraocular Pressure (%)", "setting": "[2]; oral 20 mg/kg (positive control), 0 hours", "result": 0, "unit": "%"}, {"measurement": "Change in Intraocular Pressure (%)", "setting": "[2]; oral 20 mg/kg (positive control), 6 hours", "result": "−38", "unit": "%"}, {"measurement": "Change in Intraocular Pressure (%)", "setting": "[2]; oral 20 mg/kg (positive control), 12 hours", "result": "−41", "unit": "%"}, {"measurement": "Change in Intraocular Pressure (%)", "setting": "[2]; oral 20 mg/kg (positive control), 24 hours", "result": "−18", "unit": "%"}]}, {"smiles": "OCCNC(=S)NCc1cccc(Cl)c1F", "note": "[FORMULA 2, 1-(3-chloro-2-fluorobenzyl)-3-(2-hydroxyethyl)-thiourea]", "values": [{"measurement": "Sedation: reduction in the exploratory activity of the rats", "setting": "[3]; 1 mg/kg i.p.", "result": "not sedating"}, {"measurement": "Reduction of the response to tactile stimuli that indicate tactile allodynia (analgesic in chronic pain model)", "setting": "[1]", "result": "able to reduce the response to the tactile stimuli"}, {"measurement": "Change in Intraocular Pressure (%)", "setting": "[2]; oral 2 mg/kg, 0 hours", "result": 0, "unit": "%"}, {"measurement": "Change in Intraocular Pressure (%)", "setting": "[2]; oral 2 mg/kg, 6 hours", "result": "−18", "unit": "%"}, {"measurement": "Change in Intraocular Pressure (%)", "setting": "[2]; oral 2 mg/kg, 12 hours", "result": "−32", "unit": "%"}, {"measurement": "Change in Intraocular Pressure (%)", "setting": "[2]; oral 2 mg/kg, 24 hours", "result": "−3", "unit": "%"}, {"measurement": "Change in Intraocular Pressure (%)", "setting": "[2]; oral 7 mg/kg, 0 hours", "result": 0, "unit": "%"}, {"measurement": "Change in Intraocular Pressure (%)", "setting": "[2]; oral 7 mg/kg, 6 hours", "result": "−22", "unit": "%"}, {"measurement": "Change in Intraocular Pressure (%)", "setting": "[2]; oral 7 mg/kg, 12 hours", "result": "−26", "unit": "%"}, {"measurement": "Change in Intraocular Pressure (%)", "setting": "[2]; oral 7 mg/kg, 24 hours", "result": "−15", "unit": "%"}, {"measurement": "Patient-reported allodynia resulting from shingles", "setting": "[4]", "result": "markedly reduced"}, {"measurement": "Patient-reported visceral pain", "setting": "[5]", "result": "significant alleviation"}]}, {"smiles": "OCCNC(=S)NCc1ccc(F)cc1", "note": "[FORMULA 3]", "values": [{"measurement": "Sedation: reduction in the exploratory activity of the rats", "setting": "[3]; 1 mg/kg i.p.", "result": "not sedating"}, {"measurement": "Reduction of the response to tactile stimuli that indicate tactile allodynia (analgesic in chronic pain model)", "setting": "[1]", "result": "analgesic in a model of chronic pain"}, {"measurement": "Patient-reported allodynia resulting from shingles", "setting": "[4]", "result": "markedly reduced"}, {"measurement": "Patient-reported visceral pain", "setting": "[5]", "result": "significant alleviation"}]}, {"smiles": "OCCNC(=S)NCc1ccccc1F", "note": "[FORMULA 4, reference compound]", "values": [{"measurement": "Sedation: reduction in the exploratory activity of the rats", "setting": "[3]; 3 mg/kg i.p.", "result": "not sedating"}, {"measurement": "Analgesic activity (tactile allodynia)", "setting": "[1]; i.p. doses up to 3 mg/kg", "result": "no analgesic activity"}]}]}
